Each substance was assayed against T1, pepsin or simulated human gastric fluid (SGF) (Sus scrofa, UniProt P00791) (assay: not given). Details: not given.
T1 construct: purchased Sigma P6887
Format: biochemical

T1 sequence (P00791 60-385): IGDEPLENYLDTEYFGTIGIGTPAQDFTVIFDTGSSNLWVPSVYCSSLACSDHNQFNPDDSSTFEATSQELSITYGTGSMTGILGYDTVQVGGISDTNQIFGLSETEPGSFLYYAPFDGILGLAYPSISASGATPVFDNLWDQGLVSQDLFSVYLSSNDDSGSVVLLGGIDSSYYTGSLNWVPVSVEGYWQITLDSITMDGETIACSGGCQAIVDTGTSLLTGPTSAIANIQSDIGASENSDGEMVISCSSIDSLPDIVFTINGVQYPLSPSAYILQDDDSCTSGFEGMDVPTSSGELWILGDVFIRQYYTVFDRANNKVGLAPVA

Which “cleavability by human gastrointestinal proteases” value does the source give for AAPF [reference compound] here?
Its value is “neither FRET nor protein showed any cleavability”.

How did the “% of Max Slope” value turn out when AFF was run?
Its value is 63%.

How did the “% of Max Slope” value turn out when AFY was run?
The value was 63%.

For AIF, which “% of Max Slope” value is on record?
Its value is 78%.

For ALF, which “% of Max Slope” value is on record?
Its value is 78%.

For ALKLFV (cleavable linker), which “SGF cleavage (in words)” value is on record?
The value was “rapid”.

How did the “% of Max Slope, Y” value turn out when ALKLFVGS (cleavable linker) was run?
The value was 88%.

For ALY, which “% of Max Slope” value is on record?
The value was 78%.

With AYF as the substance, how does the “% of Max Slope” value read?
The value was 63%.

Which “% of Max Slope” value does the source give for DFF here?
The value was 66%.

Which “% of Max Slope” value does the source give for DFY here?
Its value is 66%.

Which “% of Max Slope” value does the source give for DYF here?
The value was 66%.

How did the “% of Max Slope” value turn out when EFF was run?
The value was 66%.

Which “% of Max Slope” value does the source give for EFY here?
The value was 66%.

For EYF, which “% of Max Slope” value is on record?
The value was 66%.

For FFA, which “% of Max Slope” value is on record?
The value was 84%.

Which “% of Max Slope” value does the source give for FFI here?
The value was 78%.

With FFL as the substance, how does the “% of Max Slope” value read?
The value was 78%.

How did the “% of Max Slope” value turn out when FFV was run?
Its value is 84%.

FYA was tested. Which “% of Max Slope” value did it give?
The value was 84%.

How did the “% of Max Slope” value turn out when FYI was run?
Its value is 78%.

FYL was tested. Which “% of Max Slope” value did it give?
Its value is 78%.

FYV was tested. Which “% of Max Slope” value did it give?
Its value is 84%.

IFA was tested. Which “% of Max Slope” value did it give?
Its value is 65%.

For IFV, which “% of Max Slope” value is on record?
The value was 65%.

IFVALKGS (cleavable linker) was tested. Which “% of Max Slope, Y” value did it give?
Its value is 88%.

For IFVRLR (cleavable linker), which “SGF cleavage (in words)” value is on record?
Its value is “rapid”.

IIF was tested. Which “% of Max Slope” value did it give?
The value was 63%.

How did the “% of Max Slope” value turn out when ILF was run?
The value was 63%.

ILY was tested. Which “% of Max Slope” value did it give?
The value was 63%.

Which “% of Max Slope” value does the source give for LFA here?
Its value is 65%.

How did the “% of Max Slope” value turn out when LFV was run?
Its value is 65%.

For LFVALKGS (cleavable linker), which “% of Max Slope, Y” value is on record?
Its value is 76%.

LFVRLRGS (cleavable linker) was tested. Which “% of Max Slope, Y” value did it give?
Its value is 74%.

With LIF as the substance, how does the “% of Max Slope” value read?
Its value is 63%.

With LIY as the substance, how does the “% of Max Slope” value read?
Its value is 63%.

LKLFVGS (cleavable linker) was tested. Which “% of Max Slope, Y” value did it give?
The value was 67%.

LLF was tested. Which “% of Max Slope” value did it give?
The value was 63%.

LRLFVGS (cleavable linker) was tested. Which “% of Max Slope, Y” value did it give?
Its value is 75%.

Which “% of Max Slope” value does the source give for LYA here?
Its value is 65%.

LYF was tested. Which “% of Max Slope” value did it give?
Its value is 100%.

For LYV, which “% of Max Slope” value is on record?
Its value is 65%.

LYY was tested. Which “% of Max Slope” value did it give?
Its value is 100%.

VFF was tested. Which “% of Max Slope” value did it give?
Its value is 63%.

With VFY as the substance, how does the “% of Max Slope” value read?
The value was 63%.

VIF was tested. Which “% of Max Slope” value did it give?
Its value is 78%.

With VLF as the substance, how does the “% of Max Slope” value read?
Its value is 78%.

How did the “% of Max Slope” value turn out when VLY was run?
Its value is 78%.

For VYF, which “% of Max Slope” value is on record?
The value was 63%.

How did the “% of Max Slope” value turn out when YFA was run?
The value was 84%.

Which “% of Max Slope” value does the source give for YFI here?
Its value is 78%.

For YFL, which “% of Max Slope” value is on record?
Its value is 78%.

For YFV, which “% of Max Slope” value is on record?
The value was 84%.

With YYL as the substance, how does the “% of Max Slope” value read?
Its value is 78%.

Each substance was assayed on insect and/or nematode protease (X condition) (assay: Round 2 and spacer FRET cleavage, X (insect) cleavage condition). Details: Round 2 FRET, X-Y combinations.
Format: biochemical
Description: Round 2 data from FRET molecules that represented a subset of binary combinations based on the observed top hits in Round 1 provided a hierarchical ranking of the various binary combinations. Round 2 FRET molecules were synthesized, resuspended, and tested in cleavage enzyme assays as described above in Round 1. Many combinations of binary cleavable linking peptides were tested against LEP, COLEOP and SGF conditions.
Data from the Round 2 FRET that exemplifies the combination of both X and Y cleavability in a binary or tertiary peptide are presented in Table 6.
To screen for potential spacers, FRET peptides were ordered as the binary peptide ALKLFVZ1Z2 and varied amino acids in positions Z1 and Z2. Some of the amino acids were screened as individuals and some were screened as pools. The peptides were re-suspended using 50% acetonitrile in water at a concentration of 2 μM of each peptide. For the one containing more than one FRET peptide, they were re-suspended so that each peptide was as 2 μM (assuming an equal portion of each one). These were then re-suspended and screened as described above for Round 1. The data does confirm that some amino acids in the Z position are more favorable than others. […] The greater the value of the slope in Table 7 the greater the activity of the amino acid when part of a spacer. The column in Table 7 labeled “Slope” indicates the speed of cleavage of the Linker.

ALKLFVGS (cleavable linker) was tested. Which “% of Max Slope, X” value did it give?
The value was 100%.

IFVALKGS (cleavable linker) was tested. Which “% of Max Slope, X” value did it give?
Its value is 69%.

With LFVALKGS (cleavable linker) as the substance, how does the “% of Max Slope, X” value read?
Its value is 92%.

LFVRLRGS (cleavable linker) was tested. Which “% of Max Slope, X” value did it give?
The value was 94%.

Which “% of Max Slope, X” value does the source give for LKLFVGS (cleavable linker) here?
Its value is 98%.

Which “% of Max Slope, X” value does the source give for LRLFVGS (cleavable linker) here?
The value was 74%.

Each substance was assayed on gut enzymes of Southern Corn Rootworm (assay: FRET peptide cleavage by coleopteran gut enzymes (COLEOP)). Details: insect (COLEOP) simulated gut environment.

For ALKLFV (cleavable linker), which “COLEOP cleavage (in words)” value is on record?
The value was “rapid”.

How did the “COLEOP cleavage (in words)” value turn out when IFVRLR (cleavable linker) was run?
The value was “rapid”.

What follows are substances tested against T2, pepsin from porcine gastric mucosa (Sus scrofa, UniProt P00791) (assay: not given). Details: not given.
T2 construct: from tissue; host or cells: porcine gastric mucosa
Format: biochemical

T2 sequence (P00791 60-385): as above

How did the “cleavage of linking peptide in SGF (His-tagged western blot)” value (shortened to “cleavage of linking peptide in SGF”) turn out when ALKLFVGS (cleavable linker) was run?
The value was “digestion and disappearance of the protein band”.

With IFVRLRGS (cleavable linker) as the substance, how does the “cleavage of linking peptide in SGF” value read?
Its value is “digestion and disappearance of the protein band”.

How did the “cleavage of linking peptide in SGF” value turn out when “IGER (listed as Pisum sativum) [control peptide that is only cleaved in insects, reference compound]” was run?
Its value is “retention of the intact protein band”.

These substances were tested on CEW gut extract (assay: not given). Details: not given.
Format: biochemical, Helicoverpa zea

With ALKLFVGS (cleavable linker) as the substance, how does the “cleavage of linking peptide in CEW gut extract (His-tagged western blot)” value read?
Its value is “digestion and disappearance of the protein band”.

Which “cleavage of linking peptide in CEW gut extract (His-tagged western blot)” value does the source give for IFVRLRGS (cleavable linker) here?
The value was “digestion and disappearance of the protein band”.

Which “cleavage of linking peptide in CEW gut extract (His-tagged western blot)” value does the source give for “IGER (listed as Pisum sativum) [control peptide that is only cleaved in insects, reference compound]” here?
The value was “only cleaves in the CEW gut extract”.

Each substance was assayed on gut extract isolated from Southern Corn Rootworm (assay: not given). Details: not given.
Format: biochemical, Diabrotica undecimpunctata

ALKLFVGS (cleavable linker) was tested. Which “cleavage of linking peptide in SCR gut extract (His-tagged western blot)” value did it give?
Its value is “digestion and disappearance of the protein band”.

With IFVRLRGS (cleavable linker) as the substance, how does the “cleavage of linking peptide in SCR gut extract (His-tagged western blot)” value read?
Its value is “digestion and disappearance of the protein band”.

For “IGER (listed as Pisum sativum) [control peptide that is only cleaved in insects, reference compound]”, which “cleavage of linking peptide in SCR gut extract (His-tagged western blot)” value is on record?
The value was “retention of the intact protein band”.

What follows are substances tested on gut enzymes of Corn Earworm (assay: FRET peptide cleavage by lepidopteran gut enzymes (LEP)). Details: LEP (X); pooled FRET screening Round 1; slope of fluorescence over 10 minutes, steepest slope = 100%; representative cleavable sequences.
Format: biochemical, Helicoverpa zea
From the text: Corn Earworm insects were obtained commercially from Benzon Research (Carlisle, Pa.) as eggs. Hatched larvae were raised on artificial diet until ⅘^th instar (20 mm long) before guts were isolated. Before gut extract, larvae were anesthetized using CO2. The larva was then pinned on the dissection plate at both the head and the tail. Using dissection scissors, the cuticle was nicked. The dissection scissors were then inserted into the nick and the […] along the insect. The cuticle was then carefully pulled back and pinned open to reveal the digestive track. Using DI water, the insect was thoroughly rinsed to remove hemolymph. The gut was then excised with tweezers and placed in a solution of 500 μL of 200 mM Tris-HCl pH 8.1 150 mM NaCl (assay buffer). The tube was pre-weighed and post-weighed to calculate the total amount of gut added. CEW gut was diluted to a stock concentration of 7 mg/ml (10×) in 200 mM Tris-HCl pH 8.1 150 mM NaCl. This was diluted fresh each plate by 20× with the assay buffer.

PKR was tested. Which “% of Max Slope” value did it give?
The value was 100%.

With PRK as the substance, how does the “% of Max Slope” value read?
The value was 100%.

PRR was tested. Which “% of Max Slope” value did it give?
The value was 100%.

Which “% of Max Slope” value does the source give for RKF here?
The value was 92%.

RKS was tested. Which “% of Max Slope” value did it give?
Its value is 93%.

RKT was tested. Which “% of Max Slope” value did it give?
The value was 93%.

For RKY, which “% of Max Slope” value is on record?
The value was 92%.

For RRF, which “% of Max Slope” value is on record?
The value was 92%.

For RRS, which “% of Max Slope” value is on record?
Its value is 93%.

RRT was tested. Which “% of Max Slope” value did it give?
The value was 93%.

Which “% of Max Slope” value does the source give for RRY here?
The value was 92%.

RSK was tested. Which “% of Max Slope” value did it give?
The value was 90%.

How did the “% of Max Slope” value turn out when RSR was run?
Its value is 90%.

RTK was tested. Which “% of Max Slope” value did it give?
Its value is 90%.

How did the “% of Max Slope” value turn out when RTR was run?
The value was 90%.

VKF was tested. Which “% of Max Slope” value did it give?
Its value is 93%.

Which “% of Max Slope” value does the source give for VKS here?
Its value is 90%.

With VKT as the substance, how does the “% of Max Slope” value read?
The value was 90%.

VKY was tested. Which “% of Max Slope” value did it give?
The value was 93%.

Which “% of Max Slope” value does the source give for VRF here?
The value was 93%.

How did the “% of Max Slope” value turn out when VRS was run?
The value was 90%.

For VRT, which “% of Max Slope” value is on record?
The value was 90%.

Which “% of Max Slope” value does the source give for VRY here?
Its value is 93%.

Same assay, conditions: LEP (X); pooled FRET screening; failed cleavable sequences

PKR was tested. Which “% of Max Slope” value did it give?
Its value is 0%.

Which “% of Max Slope” value does the source give for PRK here?
Its value is 0%.

With PRR as the substance, how does the “% of Max Slope” value read?
The value was 0%.

How did the “% of Max Slope” value turn out when VRY was run?
The value was 0%.

Same assay, conditions: insect (LEP) simulated gut environment

For ALKLFV (cleavable linker), which “LEP cleavage (in words)” value is on record?
Its value is “rapid”.

How did the “LEP cleavage (in words)” value turn out when IFVRLR (cleavable linker) was run?
Its value is “rapid”.

Reference: patent US11447531B2, “Cleavable peptides and insecticidal and nematicidal proteins comprising same” (Vestaron Corporation, priority 2016, dated 2022)
